Results taken from patent publication US12612360B2 (Sanofi, priority 2020, dated 2026).

Target: T1, ERα (Homo sapiens, UniProt P03372)
T1 construct: host or cells: MCF7
T1 sequence (P03372 1-595): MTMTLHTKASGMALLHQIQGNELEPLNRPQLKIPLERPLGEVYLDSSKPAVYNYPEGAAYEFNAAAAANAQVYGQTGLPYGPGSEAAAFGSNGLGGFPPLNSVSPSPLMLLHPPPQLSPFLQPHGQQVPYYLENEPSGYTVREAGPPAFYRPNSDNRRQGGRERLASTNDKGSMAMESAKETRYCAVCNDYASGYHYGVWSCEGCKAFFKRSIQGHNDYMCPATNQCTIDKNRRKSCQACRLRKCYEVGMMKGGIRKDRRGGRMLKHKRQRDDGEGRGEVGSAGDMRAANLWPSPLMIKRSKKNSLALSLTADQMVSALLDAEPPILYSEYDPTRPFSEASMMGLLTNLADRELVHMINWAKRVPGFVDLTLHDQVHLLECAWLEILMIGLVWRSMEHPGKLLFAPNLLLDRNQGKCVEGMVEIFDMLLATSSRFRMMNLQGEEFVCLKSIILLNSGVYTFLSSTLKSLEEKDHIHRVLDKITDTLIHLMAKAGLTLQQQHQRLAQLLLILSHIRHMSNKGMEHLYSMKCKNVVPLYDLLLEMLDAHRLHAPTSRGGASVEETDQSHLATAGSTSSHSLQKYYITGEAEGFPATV
Assay: Estrogen receptor degradation activity: breast cancer cell ERα in cell western assay (MCF7 cells)
Type: cell-based
Conditions: for % Degradation At 0.3 μM: 4 hours, relative to fulvestrant 0.1 μM positive control; for DC50: 4 hours post compound addition, concentration which degrades 50% of the estrogen receptor, read-out: Degradation IC50
In short: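 In-cell western readout: ERα immunofluorescence (Alexa 488) normalised to DNA signal (Syto-64) after formalin fixation. Compounds dosed for 4 h on MCF7 cells in stripped-serum, phenol-red-free medium over nine 1:5 steps, 0.3 to […] final; fulvestrant 0.1 μM control. IC50 in nM for 50% ERα degradation.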

| SMILES | % Degradation At 0.3 μM | DC50 |
| --- | --- | --- |
| Cc1cc(F)ccc1C1=C(c2ccc(C=C3CN(CCCF)C3)cc2C(F)(F)F)c2ccc(C(=O)O)cc2CCC1 [Example 138, 8-(4-fluoro-2-methylphenyl)-9-(4-((1-(3-fluoropropyl)azetidin-3-ylidene)methyl)-2-(trifluoromethyl)phenyl)-6,7-dihydro-5H-benzo[7]annulene-3-carboxylic acid] | 95% | 1.8 nM |
| O=C(O)c1ccc2c(c1)CCCC(c1ccc(C3CC3)cc1C(F)(F)F)=C2c1ccc(C=C2CN(CCCF)C2)cc1 [Example 141, 8-(4-cyclopropyl-2-(trifluoromethyl)phenyl)-9-(4-((1-(3-fluoropropyl)azetidin-3-ylidene)methyl)phenyl)-6,7-dihydro-5H-benzo[7]annulene-3-carboxylic acid] | 88% | 0.4 nM |
| O=C([O-])c1ccc2c(c1)CCCC(c1ccc(F)cc1F)=C2c1ccc(C=C2CN(CCCF)C2)cc1F.[Na+] [Example 142, Sodium 8-(2,4-difluorophenyl)-9-(2-fluoro-4-((1-(3-fluoropropyl)azetidin-3-ylidene)methyl)phenyl)-6,7-dihydro-5H-benzo[7]annulene-3-carboxylate] | 96% | 0.3 nM |
| O=C(O)c1ccc2c(c1)CCCC(c1cc(Cl)cc(C(F)(F)F)c1)=C2c1ccc(C=C2CN(CCCF)C2)cc1 [Example 143, 8-(3-chloro-5-(trifluoromethyl)phenyl)-9-(4-((1-(3-fluoropropyl)azetidin-3-ylidene)methyl)phenyl)-6,7-dihydro-5H-benzo[7]annulene-3-carboxylic acid] | 81% | 3.7 nM |
| Cc1ccc(C2=C(c3ccc(C=C4CN(CCCF)C4)cc3)c3ccc(C(=O)O)cc3CCC2)cc1C(F)(F)F [Example 144, 9-(4-((1-(3-fluoropropyl)azetidin-3-ylidene)methyl)phenyl)-8-(4-methyl-3-(trifluoromethyl)phenyl)-6,7-dihydro-5H-benzo[7]annulene-3-carboxylic acid] | 90% | 0.4 nM |
| O=C(O)c1ccc2c(c1)CCCC(c1ccc(C(F)(F)F)c(C(F)(F)F)c1)=C2c1ccc(C=C2CN(CCCF)C2)cc1 [Example 146, 8-(3,4-bis(trifluoromethyl)phenyl)-9-(4-((1-(3-fluoropropyl)azetidin-3-ylidene)methyl)phenyl)-6,7-dihydro-5H-benzo[7]annulene-3-carboxylic acid] | 88% | 1.4 nM |
| COc1ccc(C2=C(c3ccc(C=C4CN(CCCF)C4)cc3)c3ccc(C(=O)O)cc3CCC2)cc1C(F)(F)F [Example 148, 9-(4-((1-(3-fluoropropyl)azetidin-3-ylidene)methyl)phenyl)-8-(4-methoxy-3-(trifluoromethyl)phenyl)-6,7-dihydro-5H-benzo[7]annulene-3-carboxylic acid] | 90% | 1.2 nM |
| CCOc1ccc(C2=C(c3ccc(C=C4CN(CCCF)C4)cc3)c3ccc(C(=O)O)cc3CCC2)cc1C(F)(F)F [Example 149, 8-(4-ethoxy-3-(trifluoromethyl)phenyl)-9-(4-((1-(3-fluoropropyl)azetidin-3-ylidene)methyl)phenyl)-6,7-dihydro-5H-benzo[7]annulene-3-carboxylic acid] | 87% | 0.4 nM |
| O=C(O)c1ccc2c(c1)CCCC(c1cc(C(F)(F)F)ccc1C(F)(F)F)=C2c1ccc(C=C2CN(CCCF)C2)cc1 [Example 151, 8-(2,5-bis(trifluoromethyl)phenyl)-9-(4-((1-(3-fluoropropyl)azetidin-3-ylidene)methyl)phenyl)-6,7-dihydro-5H-benzo[7]annulene-3-carboxylic acid] | 90% | 0.2 nM |
| Cc1cc(F)ccc1C1=C(c2ccc(C=C3CN(CCCF)C3)c(F)c2F)c2ccc(C(=O)O)cc2CCC1 [Example 152, 9-(2,3-difluoro-4-((1-(3-fluoropropyl)azetidin-3-ylidene)methyl)phenyl)-8-(4-fluoro-2-methylphenyl)-6,7-dihydro-5H-benzo[7]annulene-3-carboxylic acid] | 93% | 0.2 nM |
| O=C(O)c1ccc2c(c1)CCCC(c1cc(F)ccc1C(F)(F)F)=C2c1ccc(C=C2CN(CCCF)C2)cc1 [Example 153, 8-(5-fluoro-2-(trifluoromethyl)phenyl)-9-(4-((1-(3-fluoropropyl)azetidin-3-ylidene)methyl)phenyl)-6,7-dihydro-5H-benzo[7]annulene-3-carboxylic acid] | 92% | 0.5 nM |
| O=C(O)c1ccc2c(c1)CCCC(c1cc(F)cc(C(F)(F)F)c1)=C2c1ccc(C=C2CN(CCCF)C2)cc1 [Example 155, 8-(3-fluoro-5-(trifluoromethyl)phenyl)-9-(4-((1-(3-fluoropropyl)azetidin-3-ylidene)methyl)phenyl)-6,7-dihydro-5H-benzo[7]annulene-3-carboxylic acid] | 91% | 0.3 nM |
| Cc1cc(F)ccc1C1=C(c2ccc(C=C3CN(CCCF)C3)c(C(F)(F)F)c2)c2ccc(C(=O)O)cc2CCC1 [Example 157, 8-(4-fluoro-2-methylphenyl)-9-(4-((1-(3-fluoropropyl)azetidin-3-ylidene)methyl)-3-(trifluoromethyl)phenyl)-6,7-dihydro-5H-benzo[7]annulene-3-carboxylic acid] | 88% | 3.1 nM |

Other lines, results leading:

| % Degradation At 0.3 μM | DC50 | SMILES |
| --- | --- | --- |
| 92% | 3.7 nM | COc1ccc(C(F)(F)F)cc1C1=C(c2ccc(C=C3CN(CCCF)C3)cc2)c2ccc(C(=O)O)cc2CCC1 [Example 137] |
| 97% | 3.1 nM | Cc1cc(F)ccc1C1=C(c2ccc(C=C3CN(CCCF)C3)cc2C#N)c2ccc(C(=O)O)cc2CCC1 [Example 139, 9-(2-cyano-4-((1-(3-fluoropropyl)azetidin-3-ylidene)methyl)phenyl)-8-(4-fluoro-2-methylphenyl)-6,7-dihydro-5H-benzo[7]annulene-3-carboxylic acid] |
| 92% | 0.5 nM | O=C(O)c1ccc2c(c1)CCCC(c1cc(C(F)(F)F)ccc1Cl)=C2c1ccc(C=C2CN(CCCF)C2)cc1 [Example 140, 8-(2-chloro-5-(trifluoromethyl)phenyl)-9-(4-((1-(3-fluoropropyl)azetidin-3-ylidene)methyl)phenyl)-6,7-dihydro-5H-benzo[7]annulene-3-carboxylic acid] |
| 85% | 4.3 nM | Cc1cc(C2=C(c3ccc(C=C4CN(CCCF)C4)cc3)c3ccc(C(=O)O)cc3CCC2)cc(C(F)(F)F)c1 [Example 145, 9-(4-((1-(3-fluoropropyl)azetidin-3-ylidene)methyl)phenyl)-8-(3-methyl-5-(trifluoromethyl)phenyl)-6,7-dihydro-5H-benzo[7]annulene-3-carboxylic acid] |
| 90% | 0.3 nM | O=C(O)c1ccc2c(c1)CCCC(c1cccc(C(F)(F)F)c1Cl)=C2c1ccc(C=C2CN(CCCF)C2)cc1 [Example 147, 8-(2-chloro-3-(trifluoromethyl)phenyl)-9-(4-((1-(3-fluoropropyl)azetidin-3-ylidene)methyl)phenyl)-6,7-dihydro-5H-benzo[7]annulene-3-carboxylic acid] |
| 88% | 1.7 nM | COc1cc(C2=C(c3ccc(C=C4CN(CCCF)C4)cc3)c3ccc(C(=O)O)cc3CCC2)cc(C(F)(F)F)c1 [Example 150] |
| 92% | 0.4 nM | O=C(O)c1ccc2c(c1)CCCC(c1ccc(F)c(C(F)(F)F)c1)=C2c1ccc(C=C2CN(CCCF)C2)cc1 [Example 154, 8-(4-fluoro-3-(trifluoromethyl)phenyl)-9-(4-((1-(3-fluoropropyl)azetidin-3-ylidene)methyl)phenyl)-6,7-dihydro-5H-benzo[7]annulene-3-carboxylic acid] |
| 89% | 0.6 nM | COc1cc(C2=C(c3ccc(C=C4CN(CCCF)C4)cc3)c3ccc(C(=O)O)cc3CCC2)c(F)cn1 [Example 156, 8-(5-fluoro-2-methoxypyridin-4-yl)-9-(4-((1-(3-fluoropropyl)azetidin-3-ylidene)methyl)phenyl)-6,7-dihydro-5H-benzo[7]annulene-3-carboxylic acid] |
| 94% | 0.4 nM | O=C(O)c1ccc2c(c1)CCCC(c1ccc(Cl)cc1Cl)=C2c1ncc(C=C2CN(CCCF)C2)cc1F [Example 158, 8-(2,4-Dichlorophenyl)-9-(3-fluoro-5-((1-(3-fluoropropyl)azetidin-3-ylidene)methyl)pyridin-2-yl)-6,7-dihydro-5H-benzo[7]annulene-3-carboxylic acid] |
| 97% | 20.4 nM | O=C(O)c1ccc2c(c1)CCCC(c1ccc(Cl)cc1Cl)=C2c1ccc(C=C2CN(CCCF)C2)cn1 [Example 159, 8-(2,4-Dichlorophenyl)-9-(5-((1-(3-fluoropropyl)azetidin-3-ylidene)methyl)pyridin-2-yl)-6,7-dihydro-5H-benzo[7]annulene-3-carboxylic acid] |
